The numbers were not newly measured in patent US20230364242A1, “WATER-SOLUBLE COMPLEX CONTAINING BETA BLOCKER AND LECITHIN” (NISSAN CHEMICAL CORPORATION, priority 2020, published 2023), which cites them from elsewhere.

Structures are written as SMILES.

The conditions of the data set: literature reports.

For `CC(C)NCC(O)COc1cccc2ccccc12` (stereo not shown) [propranolol], the photolysis result is recorded as “decomposition particularly proceeds in an aqueous solution”.
